Assay type in all cases: functional
In one assay the test system is Haemophilus influenzae. The experiment in a line: In vitro antibacterial activity of DILL strain of Gram negative bacteria Haemophilus influenzae.
Assay [1] deals with Streptococcus pneumoniae. The assay can be described thus: In vitro antibacterial activity of 5649 strain of Gram positive bacteria Streptococcus pneumoniae.
Assay [2] has as its system Streptococcus pneumoniae. The experiment in a line: In vitro antibacterial activity of 5979 strain of Gram positive bacteria Streptococcus pneumoniae.
In assay [3] the test system is Streptococcus pneumoniae. The assay can be described thus: In vitro antibacterial activity of ATCC 6303 strain of Gram positive bacteria Streptococcus pneumoniae.
The test system of assay [4] is Staphylococcus aureus. The experiment in a line: In vitro antibacterial activity of A5177 strain of Gram positive bacteria Staphylococcus aureus.
The subject of assay [5] is Streptococcus pyogenes. The experiment in a line: In vitro antibacterial activity of 930 strain of Gram positive bacteria Streptococcus pyogenes.
Assay [6] relates to Streptococcus pyogenes. The experiment in a line: In vitro antibacterial activity of EES61 strain of Gram positive bacteria Streptococcus pyogenes.
Assay [7] concerns Streptococcus pyogenes. The experiment in a line: In vitro antibacterial activity of PIU2584 strain of Gram positive bacteria Streptococcus pyogenes.
The test system of assay [8] is Staphylococcus aureus. The assay can be described thus: In vitro antibacterial activity of A-5278 strain of Gram positive bacteria Staphylococcus aureus.
In assay [9] the test system is Staphylococcus aureus. The experiment in a line: In vitro antibacterial activity of 6538P strain of Gram positive bacteria Staphylococcus aureus.

In brackets after ≈: the same amount, converted by molar mass. Where only a bound is given, the exact number is not on record here.

For the compound `CC[C@H]1OC(=O)/C(C)=C/[C@H](C)[C@@H](O[C@@H]2O[C@H](C)C[C@H](N(C)C)[C@H]2O)[C@@](C)(OC)C[C@@H](C)C(=O)[C@H](C)[C@H]2N(NCc3cc(O)ccc3O)C(=O)O[C@]12C`, the MIC amounted to 32 µg/mL (≈ 43.6 µM) with Haemophilus influenzae; 2 µg/mL (≈ 2.73 µM) with Streptococcus pneumoniae [1]; 128 µg/mL (≈ 174 µM) against Streptococcus pneumoniae [2]; 0.25 µg/mL (≈ 0.341 µM) with Streptococcus pneumoniae [3]; 3.1 µg/mL (≈ 4.22 µM) against Staphylococcus aureus [4]; 128 µg/mL (≈ 174 µM) against Streptococcus pyogenes [5]. Further, the MIC was 0.25 µg/mL (≈ 0.341 µM) against Streptococcus pyogenes [6], 4 µg/mL (≈ 5.45 µM) in the assay with Streptococcus pyogenes [7], more than 100 µg/mL against Staphylococcus aureus [8] and 3.1 µg/mL (≈ 4.22 µM) against Staphylococcus aureus [9].
On to `CC[C@H]1OC(=O)/C(C)=C/[C@H](C)[C@@H](O[C@@H]2O[C@H](C)C[C@H](N(C)C)[C@H]2O)[C@@](C)(OC)C[C@@H](C)C(=O)[C@H](C)[C@H]2N(NC/C=C/c3ccc([N+](=O)[O-])o3)C(=O)O[C@]12C`, for which the MIC against Haemophilus influenzae was 2 µg/mL (≈ 2.62 µM); in the assay with Streptococcus pneumoniae [1] it was 0.5 µg/mL (≈ 0.655 µM); in the assay with Streptococcus pneumoniae [2] it was more than 128 µg/mL; against Streptococcus pneumoniae [3], 0.03 µg/mL (≈ 0.0393 µM); against Staphylococcus aureus [4], 0.01 µg/mL (≈ 0.0131 µM); with Streptococcus pyogenes [5], 64 µg/mL (≈ 83.9 µM). The MIC against Streptococcus pyogenes [6] was 0.004 µg/mL (≈ 0.00524 µM); against Streptococcus pyogenes [7], 0.25 µg/mL (≈ 0.328 µM); against Staphylococcus aureus [8] it was more than 100 µg/mL; in the assay with Staphylococcus aureus [9], 0.02 µg/mL (≈ 0.0262 µM).
Regarding `CC[C@H]1OC(=O)/C(C)=C/[C@H](C)[C@@H](O[C@@H]2O[C@H](C)C[C@H](N(C)C)[C@H]2O)[C@@](C)(OC)C[C@@H](C)C2=NN3C(=O)O[C@@]1(C)[C@H]3[C@H]2C`, the MIC against Haemophilus influenzae was more than 128 µg/mL; with Streptococcus pneumoniae [1] it was more than 128 µg/mL; against Streptococcus pneumoniae [2] it was more than 128 µg/mL; against Streptococcus pneumoniae [3] it was more than 128 µg/mL; in the assay on Staphylococcus aureus [4] it was more than 100 µg/mL; in the assay with Streptococcus pyogenes [5], more than 128 µg/mL. The MIC is more than 128 µg/mL against Streptococcus pyogenes [6], more than 128 µg/mL with Streptococcus pyogenes [7], more than 100 µg/mL with Staphylococcus aureus [8] and more than 100 µg/mL with Staphylococcus aureus [9].
For the compound `CC[C@H]1OC(=O)/C(C)=C/[C@H](C)[C@@H](O[C@@H]2O[C@H](C)C[C@H](N(C)C)[C@H]2O)[C@@](C)(OC)C[C@@H](C)C(=O)[C@H](C)[C@H]2N(NC/C=C/c3ccccc3)C(=O)O[C@]12C`, the MIC was 8 µg/mL (≈ 11 µM) in the assay with Haemophilus influenzae; 1 µg/mL (≈ 1.37 µM) in the assay with Streptococcus pneumoniae [1]; 32 µg/mL (≈ 44 µM) in the assay on Streptococcus pneumoniae [2]; 0.03 µg/mL (≈ 0.0412 µM) against Streptococcus pneumoniae [3]; 0.1 µg/mL (≈ 0.137 µM) against Staphylococcus aureus [4]; 32 µg/mL (≈ 44 µM) against Streptococcus pyogenes [5]. In addition, the MIC came to 0.06 µg/mL (≈ 0.0824 µM) against Streptococcus pyogenes [6], 0.5 µg/mL (≈ 0.687 µM) in the assay with Streptococcus pyogenes [7], 100 µg/mL (≈ 137 µM) against Staphylococcus aureus [8] and 0.02 µg/mL (≈ 0.0275 µM) against Staphylococcus aureus [9].
For the compound `CC[C@H]1OC(=O)/C(C)=C/[C@H](C)[C@@H](O[C@@H]2O[C@H](C)C[C@H](N(C)C)[C@H]2O)[C@@](C)(OC)C[C@@H](C)C(=O)[C@H](C)[C@H]2N(N)C(=O)O[C@]12C`, the MIC is 32 µg/mL (≈ 52.3 µM) in the assay with Haemophilus influenzae; 1 µg/mL (≈ 1.63 µM) in the assay with Streptococcus pneumoniae [1]; more than 64 µg/mL in the assay on Streptococcus pneumoniae [2]; 0.25 µg/mL (≈ 0.409 µM) against Streptococcus pneumoniae [3]; 1.56 µg/mL (≈ 2.55 µM) against Staphylococcus aureus [4]; more than 64 µg/mL with Streptococcus pyogenes [5]. The MIC was 0.25 µg/mL (≈ 0.409 µM) with Streptococcus pyogenes [6], 1 µg/mL (≈ 1.63 µM) in the assay with Streptococcus pyogenes [7], more than 100 µg/mL against Staphylococcus aureus [8] and 1.56 µg/mL (≈ 2.55 µM) in the assay with Staphylococcus aureus [9].
`CC[C@H]1OC(=O)/C(C)=C/[C@H](C)[C@@H](O[C@@H]2O[C@H](C)C[C@H](N(C)C)[C@H]2O)[C@@](C)(OC)C[C@@H](C)C(=O)[C@H](C)[C@H]2N(NCCCc3cccc([N+](=O)[O-])c3)C(=O)O[C@]12C`: the MIC in the assay on Haemophilus influenzae was 8 µg/mL (≈ 10.3 µM); with Streptococcus pneumoniae [1], 0.25 µg/mL (≈ 0.323 µM); against Streptococcus pneumoniae [2], 128 µg/mL (≈ 165 µM); against Streptococcus pneumoniae [3], 0.004 µg/mL (≈ 0.00516 µM); against Staphylococcus aureus [4], 0.2 µg/mL (≈ 0.258 µM); against Streptococcus pyogenes [5] it was 64 µg/mL (≈ 82.6 µM). Besides, the MIC against Streptococcus pyogenes [6] was 0.004 µg/mL (≈ 0.00516 µM); in the assay on Streptococcus pyogenes [7], 0.25 µg/mL (≈ 0.323 µM); with Staphylococcus aureus [8], more than 100 µg/mL; in the assay on Staphylococcus aureus [9] it was 0.2 µg/mL (≈ 0.258 µM).
